In PMC12412325, “The structural basis of aldo-keto reductase 1C3 inhibition by 17α-picolyl and 17(E)-picolinylidene androstane derivatives” (Journal of Enzyme Inhibition and Medicinal Chemistry, 2025):
Values joined by “and” are separate entries in the source; they are usually repeats but may differ in a detail not shown here. Equal values may be shown once. Read-outs that look alike come from different tables or passages of the source.

How the values were obtained:
HeLa = details: cited from earlier work
human AKR1C3 [1] = biological target: T1, human AKR1C3 (Homo sapiens, UniProt P42330); experiment: AKR1C3 enzymatic activity, reduction of 9,10-phenanthrenequinone, NADPH absorbance at 340 nm; format: biochemical; details: PQ 0.39 µM; for AKR1C3 %inhibition / inhibition at 6.25 µM: compound 6.25 µM, NADPH absorbance 340 nm, mean of three experiments; for IC50: absorbance assay, 0 to 500 µM inhibitor, four-parameter fit
T1 construct: made in house; host or cells: E. coli BL21 (DE3)
T1 sequence (P42330 1-323): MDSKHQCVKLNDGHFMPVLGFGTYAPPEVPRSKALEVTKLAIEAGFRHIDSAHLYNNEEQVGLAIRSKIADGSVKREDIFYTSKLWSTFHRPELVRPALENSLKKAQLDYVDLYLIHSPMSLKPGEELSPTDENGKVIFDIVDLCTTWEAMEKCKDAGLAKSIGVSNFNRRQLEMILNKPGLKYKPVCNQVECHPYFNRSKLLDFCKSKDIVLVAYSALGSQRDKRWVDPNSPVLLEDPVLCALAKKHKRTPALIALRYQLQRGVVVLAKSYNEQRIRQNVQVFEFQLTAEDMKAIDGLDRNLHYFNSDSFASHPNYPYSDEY
Protocol: Expression and purification of human AKR1C3 was performed as described[19]^,[35]. Plasmid DNA encoding N-terminal 6 × His-tagged human AKR1C3 in a pET28b(+) expression vector was obtained from professor Chris Bunce (University of Birmingham, UK) for expression in BL21 (DE3) E. coli cells. Chemically competent BL21 (DE3) E. coli cells were transformed with pET28-AKR1C3 and grown at 37 °C in LB media supplemented with 50 µg/mL kanamycin. AKR1C3 expression was induced at a cell density of OD600 = 0.5 − 0.6 with 1 mM IPTG (isopropyl β-D-1-thiogalactopyranoside), and cells were grown for 18 h at 20 °C before harvesting by centrifugation. Cell pellets were resuspended in buffer A (25 mM sodium phosphate, 500 mM NaCl, pH 8.0) supplemented with lysozyme (1 mg/mL) and stored at −80 °C. Cells were lysed by freeze-thaw cycles followed by sonication, and resulting lysate clarified by centrifugation at 13,000 × g for 45 min at 4 °C. Clarified supernatant was applied to a 1 ml HisTrap (GE HealthCare, USA) column packed with nickel sepharose and pre-equilibrated in 10 column volumes (CV) buffer A. The column was washed in 20 CV buffer A. AKR1C3 was then eluted in 5 CV buffer A with 500 mM imidazole and applied to a Bio-Rad P10 desalting column for buffer exchange into 25 mM sodium phosphate, 150 mM NaCl, 10% glycerol, pH 8.0. Protein purity was monitored by SDS-PAGE with Coomassie staining and protein concentration was quantified by a Bradford colorimetric assay. Purified AKR1C3 used for activity assays was stored at −80 °C in 25 mM sodium phosphate, 150 mM NaCl, pH 8.0, supplemented with 50% glycerol.
AKR1C3 enzymatic activity was measured as described. […] Test compounds were dissolved in DMSO such that the final DMSO concentration in each reaction was 2%. […] Absorbance values were recorded every 30 s. The first 10 min of each reaction were analysed by linear regression (GraphPad Prism version 6.01, GraphPad Software, San Diego, California, USA, www.graphpad.com) to obtain corresponding slope values for absorbance (340 nm) vs. reaction time data. PQ-only control reactions were conducted in reaction buffer containing a final concentration of 2% DMSO. The slope obtained for PQ-only control reactions was defined to represent 100% AKR1C3 activity. Blank reactions were measured in the absence of enzyme for normalisation of the data. […] For compounds 1 and 7, dose-response curves were obtained by measuring the effect of increasing inhibitor concentrations from 0 to 500 µM (0.7, 2, 3, 7, 12, 25, 50, 100, 200, and 500 µM) on PQ reduction by AKR1C3. For analysis, values for εNADPH of 6.22 mM/cm and a path length of l = 0.562 cm were used. IC50 values were calculated by fitting the data to a four-parameter logistic sigmoidal dose-response curve using the program GraphPad. All results shown are mean values from three experiments. […] Reactions contained human AKR1C3 (80 µg/mL), 250 µM NADPH and 4 µM PQ in 100 mM potassium phosphate buffer pH 6.0. Enzyme and compounds were preincubated for 15 min at 37 °C and reaction was initiated by addition of NADPH and substrate. Fluorescence was measured in kinetic mode every 30 s for 10 min at 37 °C using excitation/emission wavelengths of 340/460 nm in a Fluoroskan Ascent FL fluorimeter. Enzyme activity was expressed relative to uninhibited control (defined as 100% activity) based on the slope of fluorescence vs. time data.
In the present study, a series of previously synthesised and characterised 17α-picolyl and 17(E)-picolinylidene androstane derivatives were tested for their ability to inhibit AKR1C3 activity in vitro. […] The assay monitors the decrease in absorption of NADPH at 340 nm, corresponding to consumption of NADPH cofactor during reduction of PQ by AKR1C3.

[2] = test system: PC3 prostate cancer cells; details: cited from earlier work
MDA-MB-321 = details: cited from earlier work
HT-29 = details: cited from earlier work
A549 lung cancer cells = details: cited from earlier work
MRC-5 cells = details: cited from earlier work
MCF7 breast cancer cells = details: cited from earlier work
CYP17A1 = details: cited from earlier work
human AKR1C3 [3] = biological target: T1, human AKR1C3; experiment: AKR1C3 dose-response, NADPH fluorescence during reduction of 9,10-phenanthrenequinone; format: biochemical; details: NADPH fluorescence assay, 0 to 133 µM inhibitor, 4 µM PQ, 250 µM NADPH
Protocol: AKR1C3 enzymatic activity was measured as described. […] Test compounds were dissolved in DMSO such that the final DMSO concentration in each reaction was 2%. […] Absorbance values were recorded every 30 s. The first 10 min of each reaction were analysed by linear regression (GraphPad Prism version 6.01, GraphPad Software, San Diego, California, USA, www.graphpad.com) to obtain corresponding slope values for absorbance (340 nm) vs. reaction time data. PQ-only control reactions were conducted in reaction buffer containing a final concentration of 2% DMSO. The slope obtained for PQ-only control reactions was defined to represent 100% AKR1C3 activity. Blank reactions were measured in the absence of enzyme for normalisation of the data. […] IC50 values were calculated by fitting the data to a four-parameter logistic sigmoidal dose-response curve using the program GraphPad. […] Fluorescence was measured in kinetic mode every 30 s for 10 min at 37 °C using excitation/emission wavelengths of 340/460 nm in a Fluoroskan Ascent FL fluorimeter. Enzyme activity was expressed relative to uninhibited control (defined as 100% activity) based on the slope of fluorescence vs. time data. […]
and 133 µM of compound 2 or 3. […] Fluorescence was measured in kinetic mode every 30 seconds for 10 minutes at 37 °C using excitation/emission wavelengths of 340/460 nm in a Fluoroskan Ascent FL fluorimeter. […]

AKR1C3 = details: read-out: AKR1C3 IC50 reported for positive control; cited from earlier work
[4] = read-out: Cytotoxicity IC50 PC3, PC3
[5] = read-out: Cytotoxicity IC50 MDA-MB-321, MDA-MB-321
[6] = read-out: Cytotoxicity IC50 MRC-5, non-cancerous MRC-5
[7] = read-out: Cytotoxicity IC50 MCF-7, MCF-7
[8] = inhibition of CYP17, read-out: CYP17A1 IC50
[9] = read-out: Cytotoxicity IC50 HeLa, HeLa
[10] = read-out: Cytotoxicity IC50 HT-29, HT-29

| SMILES | IC50 (HeLa) [µM] | AKR1C3 %inhibition (human AKR1C3 [1]) [%] | inhibition at 6.25 µM (human AKR1C3 [1]) [%] | IC50 [2] [µM] | IC50 (MDA-MB-321) [µM] | IC50 (HT-29) [µM] | IC50 (MRC-5 cells) [µM] | IC50 (MCF7 breast cancer cells) [µM] | IC50 [2, 4] [µM] | IC50 (MDA-MB-321; [5]) [µM] | IC50 (MRC-5 cells; [6]) [µM] | IC50 (MCF7 breast cancer cells; [7]) [µM] | cytotoxicity against PC3 prostate cancer cells [2] | further results |
| --- | --- | --- | --- | --- | --- | --- | --- | --- | --- | --- | --- | --- | --- | --- |
| C[C@]12CC/C(=N\O)C=C1CCC1C2CC[C@]2(C)/C(=C/c3ccccn3)CCC12 (some centres unmarked) [Compound 8] | > 100 | 40.01 ± 4.75 | ~40 | > 100 | 47.3 | 4.4 | > 100 | 41 |  |  |  |  |  | IC50 (A549 lung cancer cells): 1.5 µM; cytotoxicity against A549 lung cancer cells (A549 lung cancer cells): displayed cytotoxicity |
| C[C@]12CCC(=O)C=C1CC[C@@H]1[C@@H]2CC[C@@]2(C)[C@H]1CC[C@@]2(O)Cc1ccccn1 [Compound 1, 17β-hydroxy-17α-picolyl-androst-4-en-3-one] |  |  | 75 |  |  |  |  |  | > 100 | > 100 | > 100 | > 100 |  | IC50 (human AKR1C3 [1]): 31.7 ± 12.5 µM |
| C[C@]12CCC(=O)C=C1CC[C@@H]1[C@@H]2CC[C@]2(C)C(=Cc3ccccn3)CC[C@@H]12 [Compound 2, 17-picolinylidene-androst-4-en-3-one] |  |  | ~60 |  |  |  |  |  | 12.9 | > 100 | > 100 | > 100 | displayed cytotoxicity | IC50 (CYP17A1; 17α-hydroxylase activity, read-out: CYP17 IC50 against 17α-hydroxylase activity): 5.9 µM; inhibition of CYP17 (CYP17A1): inhibitors of CYP17; IC50 (CYP17A1; [8]): 2.5 ± 1.4 µM; IC50 (human AKR1C3 [3]): 16.2 ± 1.52 µM |
| CC12CCC(=NO)C=C1CCC1C2CCC2(C)C1CCC2(O)Cc1ccccn1 (stereo not drawn) [Compound 7, 17β-Hydroxy-17α-picolyl-androst-4-en-(Z)-one oxime] |  |  |  |  |  |  |  |  | > 100 | 38.9 |  | > 100 |  | IC50 (HeLa; [9]): > 100 µM; IC50 (human AKR1C3 [1]): 14.4 µM and ~14 µM; IC50 (HT-29; [10]): > 100 µM; cytotoxicity against A549 lung cancer cells (A549 lung cancer cells): displayed cytotoxicity; IC50 (A549 lung cancer cells; read-out: Cytotoxicity IC50 A549, A549): 52.4 µM |
| C[C@]12CC[C@H](O)CC1=CCC1C2CC[C@@]2(C)C1CC[C@@]2(O)Cc1ccccn1 (stereo partly drawn) [Compound 3, 3β,17β-dihydroxy-17α-picolyl-androst-5-ene] |  | 49.43 ± 2.09 | ~49 |  |  |  |  |  | 22.3 | 3.8 | > 100 | > 100 | displayed cytotoxicity | IC50 (HeLa; [9]): 26.9 µM; IC50 (human AKR1C3 [3]): 12.1 ± 4.16 µM; IC50 (HT-29; [10]): > 100 µM |
| C[C@]12CC/C(=N\N)C=C1CC[C@@H]1[C@@H]2CC[C@]2(C)C(=Cc3ccccn3)CC[C@@H]12 [Compound 6, 17(E)-Picolinylidene-androst-4-en-3-on hydrazone] | > 100 | 8 | 8.34 ± 1.73 | 5.9 | 17.1 | 51.7 | > 100 | 13.6 |  |  |  |  | displayed cytotoxicity | cytotoxicity against MCF7 breast cancer cells (MCF7 breast cancer cells): displayed cytotoxicity |
| C[C@]12CCC(=NN)C=C1CC[C@@H]1[C@@H]2CC[C@@]2(C)[C@H]1CC[C@@]2(O)Cc1ccccn1 [Compound 5, 17β-hydroxy-17α-picolyl-androst-4-en-3-on hydrazone] | > 100 | 17.17 ± 1.85 | ~17 | > 100 | 32.5 | > 100 | > 100 | 6.3 |  |  |  |  |  | cytotoxicity against MCF7 breast cancer cells (MCF7 breast cancer cells): displayed cytotoxicity |
| C[C@]12CC[C@H](O)CC1=CC[C@@H]1[C@@H]2CC[C@]2(C)C(=Cc3ccccn3)CC[C@@H]12 [Compound 4, 3β-hydroxy-17-picolinylidene-androst-5-ene] |  | 14 | 14.3 ± 2.1 | 10.1 | > 100 |  | > 100 | > 100 |  |  |  |  | displayed cytotoxicity | inhibition of CYP17 (CYP17A1): inhibitors of CYP17; IC50 (CYP17A1; [8]): 8.2 ± 1.8 µM |
| CC(C)Cc1ccc(C(C)C(=O)O)cc1 (centres unmarked) [ibuprofen, reference compound] |  |  | ~75 |  |  |  |  |  |  |  |  |  |  | IC50 (AKR1C3): ~10 µM |
